Measurements as given in US7183320B2, “Benzoylsulfonamides and sulfonylbenzamidines for use as antitumour agents” (Eli Lilly and Company, priority 2002, dated 2007).
pIC50: −log10 of the molar value.

system: HCT116 colon carcinoma cells; test: HCT116 colon carcinoma cell growth inhibition (WST-1, 72 hr); type: cell-based, human; details: 72 hr exposure
Description: HCT116 Colon Carcinoma Cell Growth Inhibition
HCT116 colon carcinoma cells were grown monolayer culture in RPMI 1640 medium supplemented with 10% fetal bovine serum and 1% penicillin-streptomycin (GibcoBRL, Grand Island, N.Y.). HCT116 cells in exponential growth phase were exposed to various concentrations of the test compounds at 37° C. for 72 hr in 5% carbon dioxide/air. After exposure to the agent, the cells were washed with 0.9% phosphate buffered saline. Growth inhibition was determined using WST-1 cell proliferation reagent as described above. The results are expressed as the growth fraction of treated cells compared with control cultures. Representative compounds of the present invention were tested for efficacy against the human colon HCT116 tumor cells.

pIC50 | SMILES
4.59 | COc1ccccc1-c1ccc(S(=O)(=O)NC(=O)c2ccc(Cl)cc2Cl)cc1 [Example 122, N-[2,4-dichlorobenzoyl]-4-(1-methoxy-phen-2-yl)phenylsulfonamide]
4.42 | COC(=O)c1ccc(-c2ccc(S(=O)(=O)NC(=O)c3ccc(Cl)cc3Cl)cc2)cc1 [Example 123, N-[2,4-dichlorobenzoyl]-4-(1-methoxycarbonyl-phen-4-yl)phenylsulfonamide]

same assay, conditions: Homo sapiens, HCT-116, 72 hr exposure

SMILES | pIC50
O=C(NS(=O)(=O)c1ccc(Br)cc1)c1ccc(C(F)(F)F)cc1C(F)(F)F [Example 49, N-[2,4-bis-trifluoromethylbenzoyl]-4-bromophenylsulfonamide] | 4.83
CCSc1ccc(S(=O)(=O)NC(=O)c2ccc(Br)cc2C)cc1 [Example 61, N-[2-methyl-4-bromobenzoyl]-4-ethylthiophenyl-sulfonamide] | 4.85
COC(=O)c1cc(S(=O)(=O)NC(=O)c2ccc(Br)cc2Br)ccc1OC [Example 34, N-[2,4-dibromobenzoyl]-3-methoxycarbonyl-4-methoxyphenylsulfonamide] | 4.78
COc1ccc(S(=O)(=O)NC(=O)c2ccc(C(F)(F)F)cc2C(F)(F)F)cc1 [Example 47, N-[2,4-bis-trifluoromethylbenzoyl]-4-methoxyphenylsulfonamide] | 5.06
Cc1cc(Cl)ccc1C(=O)NS(=O)(=O)c1ccc(C(C)(C)C)cc1 [Example 105, N-[2-methyl-4-chlorobenzoyl]-4-tert-butylphenylsulfonamide] | 4.83
Cc1cccc(S(=O)(=O)NC(=O)c2ccc(C(F)(F)F)cc2C(F)(F)F)c1 [Example 50, N-[2,4-bis-trifluoromethylbenzoyl]-3-methylphenylsulfonamide] | 4.98
CC(C)c1ccc(S(=O)(=O)NC(=O)c2ccc(Cl)cc2Br)cc1 [Example 73, N-[2-bromo-4-chlorobenzoyl]-4-isopropylphenyl-sulfonamide] | 5.08
CC(C)(C)c1ccc(S(=O)(=O)NC(=O)c2ccc(Cl)cc2Br)cc1 [Example 33, N-[2-bromo-4-chlorobenzoyl]-4-tert-butylphenylsulfonamide] | 5.11
O=C(NS(=O)(=O)c1cccc(Cl)c1)c1ccc(Br)cc1Cl [Example 17, N-[2-chloro-4-bromobenzoyl]-3-chlorophenylsulfonamide] | 4.80
Cc1cc(Cl)ccc1C(=O)NS(=O)(=O)c1ccc(OC(F)(F)F)cc1 [Example 51, N-[2-methyl-4-chlorobenzoyl]-4-trifluoromethoxy-phenylsulfonamide] | 4.57
O=C(NS(=O)(=O)c1ccc(Br)cc1)c1ccc(Br)cc1Cl [Example 14, N-[2-chloro-4-bromobenzoyl]-4-bromophenylsulfonamide] | 4.40
CCSc1ccc(S(=O)(=O)NC(=O)c2ccc(Cl)cc2Cl)cc1 [Example 62, N-[2,4-dichlorobenzoyl]-4-ethylthiophenyl-sulfonamide] | 4.71
CC(C)c1ccc(S(=O)(=O)NC(=O)c2ccc(C(F)(F)F)cc2C(F)(F)F)cc1 [Example 63, N-[2,4-bis-trifluoromethylbenzoyl]-4-isopropylphenyl-sulfonamide] | 4.61
N=C(NS(=O)(=O)c1ccc(F)c(Cl)c1)c1ccc(F)c(Cl)c1 [Example 116, N-[3-chloro-4-fluorophenylsulfonyl]-3-chloro-4-fluorobenzamidine] | 5.23
Cc1cccc(C(=O)NS(=O)(=O)c2ccc(Cl)cc2)c1Cl [Example 102, N-[2-chloro-3-methylbenzoyl]-4-chlorophenylsulfonamide] | 5.20
O=C(NS(=O)(=O)c1ccc(Cl)cc1)c1ccc(C(F)(F)F)cc1C(F)(F)F [Example 99, N-[2,4-bis-trifluoromethylbenzoyl]-4-chlorophenylsulfonamide] | 4.47
Cc1cc(Cl)ccc1C(=O)NS(=O)(=O)c1ccc(I)cc1 [Example 56, N-[2-methyl-4-chlorobenzoyl]-4-iodophenylsulfonamide] | 4.77
Cc1ccc(C(=O)NS(=O)(=O)c2ccc(F)c(Cl)c2)c(Cl)c1 [Example 59, N-[2-chloro-4-methylbenzoyl]-3-chloro-4-fluorophenyl-sulfonamide] | 4.82
Cc1cc(Br)ccc1C(=O)NS(=O)(=O)c1ccc(I)cc1 [Example 36, N-[2-methyl-4-bromobenzoyl]-4-iodophenylsulfonamide] | 4.55
O=C(NS(=O)(=O)c1ccc(Br)cc1)c1ccc([N+](=O)[O-])cc1Cl [Example 15, N-[2-chloro-4-nitrobenzoyl]-4-bromophenylsulfonamide] | 4.98
COc1cccc(S(=O)(=O)NC(=O)c2ccc(Cl)cc2Cl)c1 [Example 80, N-[2,4-dichlorobenzoyl]-3-methoxyphenyl-sulfonamide] | 4.91
O=C(NS(=O)(=O)c1cccc(C(F)(F)F)c1)c1ccc(Cl)cc1Cl [Example 25, N-[2,4-dichlorobenzoyl]-3-trifluoromethyl-phenylsulfonamide] | 5.02
Cc1ccc(S(=O)(=O)NC(=O)c2ccc(Cl)cc2C)cc1Cl [Example 45, N-[2-methyl-4-chlorobenzoyl]-3-chloro-4-methylphenylsulfonamide] | 4.68

Second part, the compound after the results:

pIC50 | SMILES
5.38 | O=C(NS(=O)(=O)c1cccc(Br)c1)c1ccc(Cl)cc1Cl [Example 1, N-[2,4-dichlorobenzoyl]-3-bromophenylsulfonamide]
5.32 | O=C(NS(=O)(=O)c1ccc(F)cc1)c1ccc(C(F)(F)F)cc1C(F)(F)F [Example 46, N-[2,4-bis-trifluoromethylbenzoyl]-4-fluorophenylsulfonamide]
5.42 | O=C(NS(=O)(=O)c1ccc(F)cc1)c1ccc(Br)cc1Cl [Example 16, N-[2-chloro-4-bromobenzoyl]-4-fluorophenylsulfonamide]
5.44 | O=C(NS(=O)(=O)c1ccc(Br)cc1)c1ccc(Cl)cc1Cl [Example 94, N-[2,4-dichlorobenzoyl]-4-bromophenylsulfonamide]
5.26 | CSc1ccc(S(=O)(=O)NC(=O)c2ccc(Cl)cc2Cl)cc1 [Example 87, N-[2,4-dichlorobenzoyl]-4-methylthiophenylsulfonamide]
5.40 | O=C(NS(=O)(=O)c1ccc(Cl)cc1)c1ccc(Br)cc1Br [Example 6, N-[2,4-dibromobenzoyl]-4-chlorophenylsulfonamide]
5.35 | Cc1cc(Cl)ccc1C(=O)NS(=O)(=O)c1cccc(Br)c1 [Example 90, N-[2-methyl-4-chlorobenzoyl]-3-bromophenylsulfonamide]
5.34 | Cc1cc(Cl)ccc1C(=O)NS(=O)(=O)c1cccc(C#N)c1 [Example 106, N-[2-methyl-4-chlorobenzoyl]-3-cyanophenylsulfonamide]
5.60 | COc1ccc(S(=O)(=O)NC(=O)c2ccc(Cl)cc2Cl)cc1 [Example 3, N-[2,4-dichlorobenzoyl]-4-methoxyphenylsulfonamide]
5.42 | CC(C)(C)c1ccc(S(=O)(=O)NC(=O)c2ccc(Br)cc2Br)cc1 [Example 5, N-[2,4-dibromobenzoyl]-4-tert-butylphenylsulfonamide]
5.55 | O=C(NS(=O)(=O)c1ccc(Cl)cc1)c1ccc(Br)cc1Cl [Example 112, N-[2-chloro-4-bromobenzoyl]-4-chlorophenylsulfonamide]
5.32 | Cc1ccc(S(=O)(=O)NC(=O)c2ccc(Cl)cc2Cl)cc1Cl [Example 89, N-[2,4-dichlorobenzoyl]-3-chloro-4-methylphenylsulfonamide]
